Measured values: patent publication US12344610B2, “APOL1 inhibitors and methods of use” (Maze Therapeutics, Inc., priority 2022, dated 2025)
Read-outs that look alike come from different tables or passages of the source.

Legend:
Type in all cases: cell-based
[1] = tested on: HEK293 clonal cell line overexpressing APOL1 G1; assay: APOL1 G1 HEK293 cell rescue assay (Example B3); details: geometric mean of at least 2 runs, † = single run, ¥ = concentration at 50% rescue estimated (no sigmoidal curve)
In short: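 Rescue of cell death caused by APOL1 G1 overexpression was measured in a clonal HEK293 line. Compounds were tested in duplicate on one plate, and EC50s were geometric means across at least two runs on different days. Some values are estimated 50%-rescue concentrations where curve fitting failed.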

[2] = tested on: Trypanosoma brucei Lister 427 VSG221 with APOL1 G2 recombinant protein; assay: APOL1 G2 trypanosome cell rescue assay (Example B5); details: geometric mean of at least 2 assay runs, † = single assay run
Protocol: (§1) APOL1 G0/G1/G2 viability assay for measurement of cytotoxicity reversal by compound in trypanosomes (APOL1 G0/G1/G2 trypanosome cell rescue assay).
(§2) APOL1 protein expression and purification. The mature from of APOL1 proteins, residues 28-398, were expressed from a pET28a vector with an N-terminal His-tag and TEV cleavage site. Proteins were expressed in Escherichia coli BL21-CodonPlus (DE3)-RIPL cells. Liter cultures of terrific broth were grown at 37° C. until an OD600 of ˜0.8 was reached and then induced with isopropyl β-D-1-thiogalactopyranoside (IPTG; final concentration of 500 μM). Afterwards, cultures were grown for 3 hours at 37° C. For protein purification, cell pellets were resuspended in lysis buffer (50 mM Tris, pH 8.5, 5 mM EDTA, 0.5 mM DTT, 0.5 mM PMSF) supplemented with a cocktail of protease inhibitors. Cells were lysed by sonication, centrifuged, and the resulting pellet was collected. The homogenized pellet was resuspended in wash buffer (50 mM Tris, pH 8.5, 0.5 M NaCl, 5 mM EDTA, 0.5 mM DTT, 0.5 mM PMSF, protease inhibitor cocktail) and collected by centrifugation. Inclusion body dissolution was then conducted as previously reported (PNAS 112(9) (2015) 2894-2899; www.pnas.org/cgi/doi/10.1073/pnas.1421953112; herein incorporated by reference in its entirety). The solubilized APOL1 protein was applied to a nickel column (HisTrap, GE Life Sciences) preequilibrated in buffer A (50 mM Tris, pH 8.5, 0.15 M NaCl, 1% zwittergent 3-14, protease inhibitor cocktail). The resin was washed with buffer B (50 mM Tris, pH 8.5, 0.15 M NaCl, 0.1% DDM) and TEV cleavage was conducted on column overnight. Afterwards, the column was washed with buffer B, followed by His-washing buffer (50 mM Tris, pH 8.5, 0.15 M NaCl, 0.1% DDM, 10 mM imidazole). The protein was then removed from the resin using His-elution buffer (50 mM Tris, pH 8.5, 0.15 M NaCl, 0.1% DDM, 250 mM imidazole). The sample was further purified by size exclusion chromatography using a Superdex 200 Increase column (GE Life Sciences) in 50 mM Tris, pH 8.5, 0.15 M NaCl, and 0.1% DDM buffer. All APOL1 proteins (G0, G1, and G2) were generated at Viva Biotech (Shanghai) Ltd.
(§3) Modified HMI-9 media preparation (https://tryps.rockefeller.edu/trypsru2_culture_media_preparation.html; herein incorporated by reference in its entirety). Trypanosomes were cultured in modified HMI-9 media consisting of IMDM (ThermoFisher, 12440053), 10% heat-inactivated FBS (Gibco, 10082-147), 10% Serum Plus (Sigma-Aldrich, 14008C), 1×HMI-9 supplement stock, and 1% hypoxanthine stock. The 10×HMI-9 supplement stock was made by dissolving 280 mg bathocuproine disulfonic acid (Sigma-Aldrich, 146625), 1820 mg cysteine (add after bathocuproine) (Sigma-Aldrich, 30089), 1100 mg pyruvic acid (Sigma-Aldrich, 107360), 100 mg uracil (Sigma-Aldrich, U0750), 100 mg cytosine (Sigma-Aldrich, C3506) and 140 μL 2-mercaptoethanol (Sigma-Aldrich, M3148) in 1000 mL of water. The resulting solution was aliquoted and stored at −20° C. The hypoxanthine stock was made by dissolving 4 g of NaOH into 1000 mL of water. Afterwards, 13.6 g hypoxanthine (Sigma-Aldrich, H9377) was added to this mixture. The resulting solution was aliquoted and stored at −20° C.
(§4) Assay Setup. Trypanosoma brucei Lister 427 VSG221 (ATCC, PRA-382) cells were cultured in modified HMI-9 media. All experiments were performed in 384-well, white, solid bottom, tissue culture treated plates (Greiner, 781080). Assay ready plates were generated with duplicate 11-point compound dilution series that consisted of 2-fold stepwise dilutions (0.4% DMSO final). To each well, was added 20 μL of 2 μg/mL of APOL1 G0, G1, or G2 recombinant protein in modified HMI-9 media using a MultiDrop Combi (final APOL1 protein concentration=[…]). Trypanosomes were counted using a hemacytometer and diluted in modified HMI-9 media to a concentration of 1.25×10^4 cell/mL. […]

[3] = tested on: Trypanosoma brucei Lister 427 VSG221 with APOL1 G1 recombinant protein; assay: APOL1 G1 trypanosome cell rescue assay (Example B5); details: geometric mean of at least 2 assay runs, † = single assay run
Protocol: as §1, §2, §3, §4

[4] = tested on: HEK293 cells overexpressing APOL1 G2; assay: APOL1 G2 HEK293 cell rescue assay (reversal of cell death caused by overexpression of APOL1); details: geometric mean of at least 2 assay runs, † = single assay run
In short: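 Each compound tested in duplicate wells on one plate per run, with values usually the geometric mean across at least two runs on different days, occasionally from one run only. Read-out: concentration giving half-maximal rescue of APOL1 G2 overexpression-induced death of HEK293 cells.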

[5] = tested on: Trypanosoma brucei Lister 427 VSG221 with APOL1 G0 recombinant protein; assay: APOL1 G0 trypanosome cell rescue assay (Example B5); details: geometric mean of at least 2 assay runs, † = single assay run
Protocol: as §1, §2, §3, §4

[6] = Homo sapiens, HEK293, HEK293 clonal line overexpressing APOL1 G1
[7] = Trypanosoma brucei, 20 h, read-out: APOL1 G2 Trypanosome Rescue EC50, Trypanosoma brucei Lister 427 VSG221 with APOL1 G2 recombinant protein, 20 hours, CellTiter-Glo
[8] = Trypanosoma brucei, 20 h, read-out: APOL1 G1 Trypanosome Rescue EC50, Trypanosoma brucei Lister 427 VSG221 with APOL1 G1 recombinant protein, 20 hours, CellTiter-Glo
[9] = Homo sapiens, HEK293, HEK293 overexpressing APOL1 G2
[10] = Trypanosoma brucei, 20 h, read-out: APOL1 G0 Trypanosome Rescue EC50, Trypanosoma brucei Lister 427 VSG221 with APOL1 G0 recombinant protein, 20 hours, CellTiter-Glo

Row | SMILES | EC50 [1, 6] [nM] | EC50 [2, 7] [nM] | EC50 [3, 8] [nM] | EC50 [4, 9] [nM] | EC50 [5, 10] [nM] | EC50 ([1]; HEK293 clonal line overexpressing APOL1 G1) [nM] | EC50 ([2]; read-out: APOL1 G2 Trypanosome Rescue EC50, Trypanosoma brucei Lister 427 VSG221 with APOL1 G2 recombinant protein, 20 hours, CellTiter-Glo) [nM] | EC50 ([3]; read-out: APOL1 G1 Trypanosome Rescue EC50, Trypanosoma brucei Lister 427 VSG221 with APOL1 G1 recombinant protein, 20 hours, CellTiter-Glo) [nM] | EC50 ([4]; HEK293 overexpressing APOL1 G2) [nM] | EC50 ([5]; read-out: APOL1 G0 Trypanosome Rescue EC50, Trypanosoma brucei Lister 427 VSG221 with APOL1 G0 recombinant protein, 20 hours, CellTiter-Glo) [nM]
1 | O=C1CCc2cc(OCCN3CCC4(CC3)C(=O)Nc3ccc(Cl)cc34)cnc2N1[C@H]1C[C@@H](O)C1 [Compound 190, 5-chloro-1′-[2-({7-oxo-8-[(cis)-3-hydroxycyclobutyl]-5,6,7,8-tetrahydro-1,8-naphthyridin-3-yl}oxy)ethyl]-1,2-dihydrospiro[indole-3,4′-piperidin]-2-one] | 105 | 35.7 | 104 | 54.7 | 92.1 | – | – | – | – | –
2 | O=C(NC1CCS(=O)(=O)C1)c1ccc(OCCN2CCC3(CC2)C(=O)Nc2ccc(Cl)cc23)cc1F (stereo not shown) [Compound 241, 4-(2-{5-chloro-2-oxo-1,2-dihydrospiro[indole-3,4′-piperidin]-1′-yl}ethoxy)-N-(1,1-dioxo-1λ^6-thiolan-3-yl)-2-fluorobenzamide] | 217 | 63.3 | 258 | 72.1 | 177 | – | – | – | – | –
3 | CS(=O)(=O)C1(c2ccc(OCCN3CCC4(CC3)C(=O)Nc3ccc(Cl)cc34)cc2)CC(O)C1 (stereo not shown) [Compound 268, 5-chloro-1′-{2-[4-(3-hydroxy-1-methanesulfonylcyclobutyl)phenoxy]ethyl}-1,2-dihydrospiro[indole-3,4′-piperidin]-2-one] | – | – | – | – | – | 211 | 32.7 | 121 | 53.4 | 108
4 | O=C(c1ccc(OCCN2CCC3(CC2)C(=O)N(CCO)c2ccc(Cl)cc23)cc1C(F)(F)F)N1CCS(=O)(=O)CC1 [Compound 271, 4-(4-{2-[5-chloro-1-(2-hydroxyethyl)-2-oxo-1,2-dihydrospiro[indole-3,4′-piperidin]-1′-yl]ethoxy}-2-(trifluoromethyl)benzoyl)-1λ^6-thiomorpholine-1,1-dione] | 340 | 15.9 | 50.7 | 152 | 51 | – | – | – | – | –
5 | CC(=O)c1ncc(OCCN2CCC3(CC2)C(=O)Nc2ccc(Cl)cc23)cc1C(F)(F)F [Compound 294, 1′-(2-{[6-acetyl-5-(trifluoromethyl)pyridin-3-yl]oxy}ethyl)-5-chloro-1,2-dihydrospiro[indole-3,4′-piperidin]-2-one] | 65.6 | 21.4 | 89 | 23.3 | 61.9 | – | – | – | – | –
6 | CC(=O)c1ncc(OCCN2CCC3(CC2)C(=O)Nc2ccc(C(F)F)cc23)cc1C(F)(F)F [Compound 295, 1′-(2-{[6-acetyl-5-(trifluoromethyl)pyridin-3-yl]oxy}ethyl)-5-(difluoromethyl)-1,2-dihydrospiro[indole-3,4′-piperidin]-2-one] | 112 | 11.1 | 40.2 | 43.6 | 32.6 | – | – | – | – | –
7 | CC(=O)c1ncc(OCCN2CCC3(CC2)C(=O)Nc2ccc(C#N)cc23)cc1C(F)(F)F [Compound 298, 1′-(2-{[6-acetyl-5-(trifluoromethyl)pyridin-3-yl]oxy}ethyl)-2-oxo-1,2-dihydrospiro[indole-3,4′-piperidine]-5-carbonitrile] | 218 | 56.6 | 156 | 81.8 | 119 | – | – | – | – | –
8 | O=C1Nc2ccc(Cl)cc2C12CCN(CCOc1cnc(C3(O)CC3)nc1)CC2 [Compound 308, 5-chloro-1′-(2-{[2-(1-hydroxycyclopropyl)pyrimidin-5-yl]oxy}ethyl)-1,2-dihydrospiro[indole-3,4′-piperidin]-2-one] | 196 | 150 | 435 | 112 | 335 | – | – | – | – | –
9 | C[C@]1(O)C[C@@H](N2C(=O)CCc3cc(OCCN4CCC5(CC4)C(=O)Nc4c(I)cc(Cl)cc45)cnc32)C1 [Compound 329, 5-chloro-7-iodo-1′-[2-({7-oxo-8-[(cis)-3-hydroxy-3-methylcyclobutyl]-5,6,7,8-tetrahydro-1,8-naphthyridin-3-yl}oxy)ethyl]-1,2-dihydrospiro[indole-3,4′-piperidin]-2-one] | 96.1 | 67.3 | 240 | 56.9 | 199 | – | – | – | – | –
10 | CC1(O)CN(c2ncnc3cc(OCCN4CCC5(CC4)C(=O)Nc4ccc(Cl)cc45)cnc23)C1 [Compound 364, 5-chloro-1′-(2-{[4-(3-hydroxy-3-methylazetidin-1-yl)pyrido[3,2-d]pyrimidin-7-yl]oxy}ethyl)-1,2-dihydrospiro[indole-3,4′-piperidin]-2-one] | 239 | 92.3 | 203 | 112 | 155 | – | – | – | – | –
11 | O=C1Nc2ccc(Cl)cc2C12CCN(CCOc1cnc3c(N4CC(O)C4)ncnc3c1)CC2 [Compound 366, 5-chloro-1′-(2-{[4-(3-hydroxyazetidin-1-yl)pyrido[3,2-d]pyrimidin-7-yl]oxy}ethyl)-1,2-dihydrospiro[indole-3,4′-piperidin]-2-one] | 136 | 32.4 | 87.3 | 80 | 66.4 | – | – | – | – | –
